# From patent US8927500B2, “Peptidomimetic macrocycles” (Aileron Therapeutics, Inc., priority 2012, dated 2015)
# Like-named read-outs stand apart in the source and are kept apart here. Where a SMILES comes first, the peptide text is derived from it. Bridges are numbered along the chain shown (N, C = ends). [ ]: non-standard residue; d: D form. The star is where a group is joined. 5TAMRA = CN(C)c1ccc2c(c1)Oc1cc(N(C)C)ccc1C21OC(=O)c2cc(C(=O)*)ccc21; dPhe(4-CF3) = N[C@H](Cc1ccc(C(F)(F)F)cc1)C(=O)O; pY = N[C@@H](Cc1ccc(OP(=O)(O)O)cc1)C(=O)O; R8 = C=CCCCCCC[C@@](C)(N)C(=O)O; Cit = NC(=O)NCCC[C@H](N)C(=O)O; Cba = N[C@@H](CC1CCC1)C(=O)O; R5 = C=CCCC[C@@](C)(N)C(=O)O; S5 = C=CCCC[C@](C)(N)C(=O)O; βAla = NCCC(=O)O
# How the values were obtained:
# [1] = target: MDM2 (Homo sapiens, UniProt Q00987); assay: Competitive fluorescence polarization assay for MDM2; assay type: binding; conditions: competitive FP assay, MDM2; for IC50: read-out: IC50 (MDM2)
# Chain of MDM2 (Q00987 1-125): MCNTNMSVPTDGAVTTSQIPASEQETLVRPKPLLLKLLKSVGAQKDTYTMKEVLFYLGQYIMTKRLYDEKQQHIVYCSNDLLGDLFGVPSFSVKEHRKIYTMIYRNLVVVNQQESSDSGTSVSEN
# Method: Dilute 1 mM (in 100% DMSO) of FAM labeled linear peptide with DMSO to 100 μM (dilution 1:10). Then, dilute from 100 μM to 10 μM with water (dilution 1:10) and then dilute with FP buffer from 10 μM to 40 nM (dilution 1:250). This is the working solution which will be a 10 nM concentration in well (dilution 1:4). […] Then, dilute from 5 mM to 500 μM with H2O (dilution 1:10) and then dilute with FP buffer from 500 μM to 20 μM (dilution 1:25).
# Dilute 1 mM (in 100% DMSO) of FAM labeled linear peptide with DMSO to 100 μM (dilution 1:10). Then, dilute from 100 μM to 10 μM with water (dilution 1:10) and then dilute with FP buffer from 10 μM to 40 nM (dilution 1:250). This is the working solution which will be a 10 nM concentration in well (dilution 1:4). […] Dilute 10 mM (in 100% DMSO) with DMSO to 5 mM (dilution 1:2). Then, dilute from 5 mM to 500 μM with H2O (dilution 1:10) and then dilute with FP buffer from 500 μM to 20 μM (dilution 1:25). […] Transfer 10 μl of serial diluted unlabeled peptides to each well which is filled with 20 μl of 300 nM of protein. • 7. Add 10 μl of 10 nM (4×) of FAM labeled peptide into each well and incubate for 3 hr to read.
# [2] = target: T1, MDMX (Homo sapiens, UniProt O15151); assay: Competitive fluorescence polarization assay for MDMX; assay type: binding; conditions: competitive FP assay; for IC50: read-out: IC50 (MDMX)
# T1 sequence (O15151 1-125): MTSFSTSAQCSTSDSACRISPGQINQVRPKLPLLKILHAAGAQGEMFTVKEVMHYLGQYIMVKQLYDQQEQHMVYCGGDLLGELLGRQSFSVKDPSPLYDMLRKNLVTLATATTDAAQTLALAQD
SMILES,Ki ([1]; read-out: Ki (MDM2)) [µM],Ki ([2]; read-out: Ki (MDMX)) [µM],IC50 [1] [µM],IC50 [2] [µM],further results
CC(=O)N[C@@H](CC(C)C)C(=O)N[C@H](C(=O)N[C@@H](Cc1ccccc1)C(=O)N[C@]1(C)CCCCCCC=CCCC[C@@](C)(C(=O)N[C@@H](C)C(=O)N[C@@H](C)C(=O)N[C@@H](C)C(=O)N[C@@H](C)C(=O)N[C@@H](C)C(=O)N[C@H](C)C(N)=O)NC(=O)[C@H](CC(C)C)NC(=O)[C@H](CCCNC(N)=O)NC(=O)[C@H](C)NC(=O)[C@H](Cc2c[nH]c3ccccc23)NC(=O)[C@H](Cc2ccc(O)cc2)NC(=O)[C@H](CCC(=O)O)NC1=O)[C@@H](C)O [compound 612] (Ac-LTF[R8]EYWA[Cit]L[S5]AAAAA[dA]-NH2; staple 4-11),< 0.01,0.01 to 0.1,–,–,–
CC(=O)N[C@@H](CC(C)C)C(=O)N[C@H](C(=O)N[C@@H](Cc1ccccc1)C(=O)N[C@]1(C)CCCCCCC=CCCC[C@@](C)(C(=O)N[C@@H](C)C(=O)N[C@@H](C)C(=O)N[C@@H](C)C(=O)N[C@@H](C)C(=O)N[C@@H](C)C(=O)N[C@H](C)C(N)=O)NC(=O)[C@H](CC(C)C)NC(=O)[C@H](Cc2c[nH]cn2)NC(=O)[C@H](C)NC(=O)[C@H](Cc2c[nH]c3ccccc23)NC(=O)[C@H](Cc2ccc(O)cc2)NC(=O)[C@H](CCC(=O)O)NC1=O)[C@@H](C)O [compound 613] (Ac-LTF[R8]EYWAHL[S5]AAAAA[dA]-NH2; staple 4-11),< 0.01,0.01 to 0.1,–,–,–
CC(=O)N[C@@H](CC(C)C)C(=O)N[C@H](C(=O)N[C@@H](Cc1ccccc1)C(=O)N[C@]1(C)CCCCCCC=CCCC[C@@](C)(C(=O)N[C@@H](C)C(=O)N[C@@H](C)C(=O)N[C@@H](C)C(=O)N[C@@H](C)C(=O)N[C@@H](C)C(=O)N[C@H](C)C(N)=O)NC(=O)[C@H](CC(C)C)NC(=O)[C@H](CCC(N)=O)NC(=O)[C@H](C)NC(=O)[C@H](Cc2c[nH]c3ccccc23)NC(=O)[C@H](Cc2ccc(OP(=O)(O)O)cc2)NC(=O)[C@H](CCC(=O)O)NC1=O)[C@@H](C)O [compound 615] (Ac-LTF[R8]E[pY]WAQL[S5]AAAAA[dA]-NH2; staple 4-11),–,–,–,–,Ki ([1]; Ki (MDM2)): < 0.01 µM; Ki ([2]; Ki (MDMX)): < 0.01 µM
CC(C)C[C@H](NC(=O)CCNC(=O)c1ccc2c(c1)C(=O)OC21c2ccc(N(C)C)cc2Oc2cc(N(C)C)ccc21)C(=O)N[C@H](C(=O)N[C@@H](C)C(=O)N[C@]1(C)CCCCCCC=CCCC[C@@](C)(C(=O)N[C@@H](CO)C(=O)N[C@@H](C)C(=O)N[C@@H](C)C(N)=O)NC(=O)[C@H](CC2CCC2)NC(=O)[C@H](CCC(N)=O)NC(=O)[C@H](C)NC(=O)[C@H](Cc2c[nH]c3ccccc23)NC(=O)[C@H](Cc2ccc(O)cc2)NC(=O)[C@H](CCC(=O)O)NC1=O)[C@@H](C)O [compound 687] ({5TAMRA-βAla}-LTA[R8]EYWAQ[Cba][S5]SAA-NH2; staple 4-11),0.1 to 1,0.1 to 1,–,–,–

# Further lines, with some results ahead:
Ki ([1]; read-out: Ki (MDM2)) [µM],Ki ([2]; read-out: Ki (MDMX)) [µM],IC50 [1] [µM],IC50 [2] [µM],SMILES,further results
–,–,0.1 to 1,> 1,CC(=O)N[C@@H](C(=O)N[C@]1(C)CCCC=CCCC[C@](C)(C(=O)N[C@H](Cc2ccc(C(F)(F)F)cc2)C(=O)N[C@H](CCC(=O)O)C(=O)N[C@H](CCCCN)C(=O)N[C@H](CC(C)C)C(=O)N[C@H](CC(C)C)C(=O)N[C@H](CCCNC(=N)N)C(N)=O)NC(=O)[C@@H](C)NC(=O)[C@@H](Cc2ccc(O)cc2)NC(=O)[C@@H](Cc2c[nH]c3ccccc23)NC1=O)[C@H](C)O [compound 752] (Ac-[dT][R5][dW][dY][dA][R5][dPhe(4-CF3)][dE][dK][dL][dL][dR]-NH2; staple 2-6),–
–,–,0.01 to 0.1,> 1,CC(=O)N[C@@H](C(=O)N[C@H](C)C(=O)N[C@H](Cc1c[nH]c2ccccc12)C(=O)N[C@H](Cc1ccc(O)cc1)C(=O)N[C@]1(C)CCCC=CCCC[C@](C)(C(=O)N[C@H](CC(C)C)C(=O)N[C@H](CC(C)C)C(=O)N[C@H](CCCNC(=N)N)C(N)=O)NC(=O)[C@@H](CCC(=O)O)NC(=O)[C@@H](Cc2ccc(C(F)(F)F)cc2)NC(=O)[C@@H](CC(N)=O)NC1=O)[C@H](C)O [compound 753] (Ac-[dT][dA][dW][dY][R5][dN][dPhe(4-CF3)][dE][R5][dL][dL][dR]-NH2; staple 5-9),–
–,–,0.1 to 1,> 1,CC(=O)N[C@@H](C(=O)N[C@H](C)C(=O)N[C@H](Cc1c[nH]c2ccccc12)C(=O)N[C@H](Cc1ccc(O)cc1)C(=O)N[C@H](C)C(=O)N[C@]1(C)CCCC=CCCC[C@](C)(C(=O)N[C@H](CC(C)C)C(=O)N[C@H](CCCNC(=N)N)C(N)=O)NC(=O)[C@@H](CCCCN)NC(=O)[C@@H](CCC(=O)O)NC(=O)[C@@H](Cc2ccc(C(F)(F)F)cc2)NC1=O)[C@H](C)O [compound 754],–
–,–,< 0.01,> 1,CC(=O)N[C@@H](C(=O)N[C@H](C)C(=O)N[C@H](Cc1c[nH]c2ccccc12)C(=O)N[C@H](Cc1ccc(O)cc1)C(=O)N[C@H](C)C(=O)N[C@H](CC(N)=O)C(=O)N[C@H](Cc1ccc(C(F)(F)F)cc1)C(=O)N[C@H](CCC(=O)O)C(=O)N[C@]1(C)CCCC=CCCC[C@](C)(C(=O)N[C@H](C)C(N)=O)NC(=O)[C@@H](CCCNC(=N)N)NC(=O)[C@@H](CC(C)C)NC(=O)[C@@H](CC(C)C)NC1=O)[C@H](C)O [compound 755] (Ac-[dT][dA][dW][dY][dA][dN][dPhe(4-CF3)][dE][R5][dL][dL][dR][R5][dA]-NH2; staple 9-13),–
